Source: the supplement of paper PMC10307832

How the values were obtained:
Test in all cases: relative viability (nuclei count vs DMSO), 5 days (fraction); higher = more cells survive
[1] = compound: C=CC(=O)Nc1cc(-n2c(=O)ccc3cnc4ccc(-c5ccc(NS(C)(=O)=O)cc5)cc4c32)ccc1C [BMX-IN-1] + Nc1nc2[nH]cc(CCc3ccc(C(=O)N[C@@H](CCC(=O)O)C(=O)O)cc3)c2c(=O)[nH]1 [Pemetrexed] (partner 0.2 µM)
Summary of the method: (§1)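 Lung cancer cell lines were pin-tool dosed in 1536-well plates on the day after seeding, with either a lone drug or a fixed anchor-drug dose plus five library-drug doses (not always all listed) in √10 steps. Nuclei were counted on 4× images after 5 days. Relative viability is the ratio of treated-well to vehicle-well nuclei counts, with each value a median of duplicate plates.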

[2] = compound: C=CCc1cccc(/C=N/NC(=O)CN2CCN(Cc3ccccc3)CC2)c1O [PAC-1] + Cc1cc(Nc2cc(N3CCN(C)CC3)nc(Sc3ccc(NC(=O)C4CC4)cc3)n2)n[nH]1 [Tozasertib] (partner 0.1 µM)
Summary of the method: as §1

[3] = compound: C=CC(=O)Nc1cc(-n2c(=O)ccc3cnc4ccc(-c5ccc(NS(C)(=O)=O)cc5)cc4c32)ccc1C [BMX-IN-1] + Cc1nc(NC(=O)N2CCC[C@H]2C(N)=O)sc1-c1ccnc(C(C)(C)C(F)(F)F)c1 [Alpelisib] (partner 2 µM)
Summary of the method: as §1

[4] = compound: C=CCc1cccc(/C=N/NC(=O)CN2CCN(Cc3ccccc3)CC2)c1O [PAC-1] + Cc1nc(Nc2ncc(C(=O)Nc3c(C)cccc3Cl)s2)cc(N2CCN(CCO)CC2)n1 [Dasatinib] (partner 0.075 µM)
Summary of the method: as §1

[5] = compound: C=CC(=O)Nc1cc(-n2c(=O)ccc3cnc4ccc(-c5ccc(NS(C)(=O)=O)cc5)cc4c32)ccc1C [BMX-IN-1] + O=C(CCCCCCC(=O)Nc1ccccc1)NO [Vorinostat] (partner 1 µM)
Summary of the method: as §1

NCI-H2228
relative viability ([1]; first compound 0.02 µM): 0.408
relative viability ([1]; first compound 0.2 µM): 0.331
relative viability ([1]; first compound 0.6325 µM): 0.396
relative viability ([1]; first compound 2 µM): 0.325
relative viability ([2]; first compound 0.02 µM): 0.228
relative viability ([2]; first compound 0.06325 µM): 0.258
relative viability ([2]; first compound 0.2 µM): 0.263
relative viability ([2]; first compound 2 µM): 0.234
relative viability ([3]; first compound 0.02 µM): 0.906
relative viability ([3]; first compound 0.2 µM): 1.04
relative viability ([3]; first compound 0.6325 µM): 1.16
relative viability ([3]; first compound 2 µM): 0.822
relative viability ([4]; first compound 0.02 µM): 0.506
relative viability ([4]; first compound 0.06325 µM): 0.505
relative viability ([4]; first compound 0.2 µM): 0.537
relative viability ([4]; first compound 2 µM): 0.501
relative viability ([5]; first compound 0.02 µM): 0.938
relative viability ([5]; first compound 0.2 µM): 0.884
relative viability ([5]; first compound 0.6325 µM): 0.531
relative viability ([5]; first compound 2 µM): 0.561

NCI-H2347
relative viability ([1]; first compound 0.02 µM): 0.412
relative viability ([1]; first compound 0.2 µM): 0.298
relative viability ([1]; first compound 0.6325 µM): 0.417
relative viability ([1]; first compound 2 µM): 0.397
relative viability ([2]; first compound 0.02 µM): 0.534
relative viability ([2]; first compound 0.06325 µM): 0.572
relative viability ([2]; first compound 0.2 µM): 0.576
relative viability ([2]; first compound 2 µM): 0.511
relative viability ([3]; first compound 0.02 µM): 1.25
relative viability ([3]; first compound 0.2 µM): 1.07
relative viability ([3]; first compound 0.6325 µM): 1.16
relative viability ([3]; first compound 2 µM): 0.974
relative viability ([4]; first compound 0.02 µM): 0.28
relative viability ([4]; first compound 0.06325 µM): 0.3
relative viability ([4]; first compound 0.2 µM): 0.312
relative viability ([4]; first compound 2 µM): 0.362
relative viability ([5]; first compound 0.02 µM): 0.725
relative viability ([5]; first compound 0.2 µM): 0.716
relative viability ([5]; first compound 0.6325 µM): 0.586
relative viability ([5]; first compound 2 µM): 0.596

NCI-H2405
relative viability ([1]; first compound 0.02 µM): 1.13
relative viability ([1]; first compound 0.2 µM): 1.19
relative viability ([1]; first compound 0.6325 µM): 1.09
relative viability ([1]; first compound 2 µM): 0.94
relative viability ([2]; first compound 0.02 µM): 0.688
relative viability ([2]; first compound 0.06325 µM): 0.737
relative viability ([2]; first compound 0.2 µM): 0.74
relative viability ([2]; first compound 2 µM): 0.786
relative viability ([3]; first compound 0.02 µM): 0.816
relative viability ([3]; first compound 0.2 µM): 0.755
relative viability ([3]; first compound 0.6325 µM): 0.747
relative viability ([3]; first compound 2 µM): 0.766
relative viability ([4]; first compound 0.02 µM): 0.173
relative viability ([4]; first compound 0.06325 µM): 0.221
relative viability ([4]; first compound 0.2 µM): 0.207
relative viability ([4]; first compound 2 µM): 0.176
relative viability ([5]; first compound 0.02 µM): 1.05
relative viability ([5]; first compound 0.2 µM): 1.13
relative viability ([5]; first compound 0.6325 µM): 1.16
relative viability ([5]; first compound 2 µM): 0.955

NCI-H3122
relative viability ([1]; first compound 0.02 µM): 0.203
relative viability ([1]; first compound 0.2 µM): 0.206
relative viability ([1]; first compound 0.6325 µM): 0.19
relative viability ([1]; first compound 2 µM): 0.19
relative viability ([2]; first compound 0.02 µM): 0.421
relative viability ([2]; first compound 0.06325 µM): 0.425
relative viability ([2]; first compound 0.2 µM): 0.394
relative viability ([2]; first compound 2 µM): 0.344
relative viability ([3]; first compound 0.02 µM): 0.815
relative viability ([3]; first compound 0.2 µM): 0.879
relative viability ([3]; first compound 0.6325 µM): 0.657
relative viability ([3]; first compound 2 µM): 0.812
relative viability ([4]; first compound 0.02 µM): 0.828
relative viability ([4]; first compound 0.06325 µM): 0.811
relative viability ([4]; first compound 0.2 µM): 0.857
relative viability ([4]; first compound 2 µM): 0.764
relative viability ([5]; first compound 0.02 µM): 0.938
relative viability ([5]; first compound 0.2 µM): 1.1
relative viability ([5]; first compound 0.6325 µM): 0.902
relative viability ([5]; first compound 2 µM): 1.14

PC-3 [JPC-3]
relative viability ([1]; first compound 0.02 µM): 0.933
relative viability ([1]; first compound 0.2 µM): 1.28
relative viability ([1]; first compound 0.6325 µM): 1.44
relative viability ([1]; first compound 2 µM): 1.04
relative viability ([2]; first compound 0.02 µM): 0.883
relative viability ([2]; first compound 0.06325 µM): 0.859
relative viability ([2]; first compound 0.2 µM): 0.842
relative viability ([2]; first compound 2 µM): 0.857
relative viability ([3]; first compound 0.02 µM): 1.17
relative viability ([3]; first compound 0.2 µM): 1.06
relative viability ([3]; first compound 0.6325 µM): 1.09
relative viability ([3]; first compound 2 µM): 1.09
relative viability ([4]; first compound 0.02 µM): 1.06
relative viability ([4]; first compound 0.06325 µM): 0.986
relative viability ([4]; first compound 0.2 µM): 0.981
relative viability ([4]; first compound 2 µM): 0.975
relative viability ([5]; first compound 0.02 µM): 0.953
relative viability ([5]; first compound 0.2 µM): 0.831
relative viability ([5]; first compound 0.6325 µM): 0.916
relative viability ([5]; first compound 2 µM): 0.766

PC-14
relative viability ([1]; first compound 0.02 µM): 0.121
relative viability ([1]; first compound 0.2 µM): 0.134
relative viability ([1]; first compound 0.6325 µM): 0.145
relative viability ([1]; first compound 2 µM): 0.134
relative viability ([2]; first compound 0.02 µM): 0.572
relative viability ([2]; first compound 0.06325 µM): 0.635
relative viability ([2]; first compound 0.2 µM): 0.63
relative viability ([2]; first compound 2 µM): 0.626
relative viability ([3]; first compound 0.02 µM): 1.08
relative viability ([3]; first compound 0.2 µM): 1.03
relative viability ([3]; first compound 0.6325 µM): 0.981
relative viability ([3]; first compound 2 µM): 0.983
relative viability ([4]; first compound 0.02 µM): 0.248
relative viability ([4]; first compound 0.06325 µM): 0.265
relative viability ([4]; first compound 0.2 µM): 0.279
relative viability ([4]; first compound 2 µM): 0.249
relative viability ([5]; first compound 0.02 µM): 0.863
relative viability ([5]; first compound 0.2 µM): 0.86
relative viability ([5]; first compound 0.6325 µM): 1.01
relative viability ([5]; first compound 2 µM): 0.0519

RERF-LC-KJ
relative viability ([1]; first compound 0.02 µM): 0.468
relative viability ([1]; first compound 0.2 µM): 0.448
relative viability ([1]; first compound 0.6325 µM): 0.48
relative viability ([1]; first compound 2 µM): 0.456
relative viability ([2]; first compound 0.02 µM): 0.467
relative viability ([2]; first compound 0.06325 µM): 0.483
relative viability ([2]; first compound 0.2 µM): 0.45
relative viability ([2]; first compound 2 µM): 0.511
relative viability ([3]; first compound 0.02 µM): 0.787
relative viability ([3]; first compound 0.2 µM): 0.868
relative viability ([3]; first compound 0.6325 µM): 0.856
relative viability ([3]; first compound 2 µM): 0.899
relative viability ([4]; first compound 0.02 µM): 0.826
relative viability ([4]; first compound 0.06325 µM): 0.812
relative viability ([4]; first compound 0.2 µM): 0.775
relative viability ([4]; first compound 2 µM): 0.786
relative viability ([5]; first compound 0.02 µM): 0.77
relative viability ([5]; first compound 0.2 µM): 0.734
relative viability ([5]; first compound 0.6325 µM): 0.824
relative viability ([5]; first compound 2 µM): 0.45

SK-LU-1
relative viability ([1]; first compound 0.02 µM): 1.13
relative viability ([1]; first compound 0.2 µM): 1.27
relative viability ([1]; first compound 0.6325 µM): 0.962
relative viability ([1]; first compound 2 µM): 0.95
relative viability ([2]; first compound 0.02 µM): 0.314
relative viability ([2]; first compound 0.06325 µM): 0.332
relative viability ([2]; first compound 0.2 µM): 0.341
relative viability ([2]; first compound 2 µM): 0.294
relative viability ([3]; first compound 0.02 µM): 1
relative viability ([3]; first compound 0.2 µM): 1.05
relative viability ([3]; first compound 0.6325 µM): 0.964
relative viability ([3]; first compound 2 µM): 1.06
relative viability ([4]; first compound 0.02 µM): 0.208
relative viability ([4]; first compound 0.06325 µM): 0.173
relative viability ([4]; first compound 0.2 µM): 0.185
relative viability ([4]; first compound 2 µM): 0.181
relative viability ([5]; first compound 0.02 µM): 0.719
relative viability ([5]; first compound 0.2 µM): 0.969
relative viability ([5]; first compound 0.6325 µM): 0.797
relative viability ([5]; first compound 2 µM): 0.69

SW 1573
relative viability ([1]; first compound 0.02 µM): 0.901
relative viability ([1]; first compound 0.2 µM): 1.02
relative viability ([1]; first compound 0.6325 µM): 0.931
relative viability ([1]; first compound 2 µM): 0.666
relative viability ([2]; first compound 0.02 µM): 0.172
relative viability ([2]; first compound 0.06325 µM): 0.184
relative viability ([2]; first compound 0.2 µM): 0.255
relative viability ([2]; first compound 2 µM): 0.148
relative viability ([3]; first compound 0.02 µM): 0.913
relative viability ([3]; first compound 0.2 µM): 0.882
relative viability ([3]; first compound 0.6325 µM): 0.8
relative viability ([3]; first compound 2 µM): 0.798
relative viability ([4]; first compound 0.02 µM): 0.537
relative viability ([4]; first compound 0.06325 µM): 0.561
relative viability ([4]; first compound 0.2 µM): 0.44
relative viability ([4]; first compound 2 µM): 0.52
relative viability ([5]; first compound 0.02 µM): 0.845
relative viability ([5]; first compound 0.2 µM): 0.98
relative viability ([5]; first compound 0.6325 µM): 0.709
relative viability ([5]; first compound 2 µM): 0.0976

UMC-11
relative viability ([1]; first compound 0.02 µM): 0.92
relative viability ([1]; first compound 0.2 µM): 0.792
relative viability ([1]; first compound 0.6325 µM): 0.754
relative viability ([1]; first compound 2 µM): 0.754
relative viability ([2]; first compound 0.02 µM): 0.204
relative viability ([2]; first compound 0.06325 µM): 0.202
relative viability ([2]; first compound 0.2 µM): 0.212
relative viability ([2]; first compound 2 µM): 0.187
relative viability ([3]; first compound 0.02 µM): 1.16
relative viability ([3]; first compound 0.2 µM): 1.28
relative viability ([3]; first compound 0.6325 µM): 1.08
relative viability ([3]; first compound 2 µM): 0.98
relative viability ([4]; first compound 0.02 µM): 0.483
relative viability ([4]; first compound 0.06325 µM): 0.484
relative viability ([4]; first compound 0.2 µM): 0.462
relative viability ([4]; first compound 2 µM): 0.437
relative viability ([5]; first compound 0.02 µM): 0.343
relative viability ([5]; first compound 0.2 µM): 0.417
relative viability ([5]; first compound 0.6325 µM): 0.336
relative viability ([5]; first compound 2 µM): 0.332
